What was measured:
[1] = system: primary rat hepatocytes; experiment: Measurement of glycogen synthesis in primary rat hepatocytes; type: cell-based; settings: 10 mM glucose, fold increase over DMSO control; for fold induction at 10 µM: Rattus norvegicus, Hepatocyte, 3 h, 10 μM compound; for Fold increase in glycogen synthesis at 10 μM compound: 3 hours
Method: Primary hepatocytes are collected from male Wistar rats, and tested for viability by trypan blue exclusion. Primary hepatocytes cultures with viability greater than 95% are selected for the glycogen synthesis assay. The cells are seeded in a 48-well plate at a density of 200,000 cells/well in 250 μl Minimal Essential Medium (MEM) containing 10% foetal calf serum (FCS) and 1.7 μM insulin, and incubated for 4 hours at 37° C. to allow attachment. The medium is replaced with fresh MEM containing 10% FCS, 1.7 μM insulin and 10 nM dexamethasone, and the cells are incubated for 16 hours at 37° C. The medium is then replaced with fresh MEM (serum-free) containing 2 μCi/ml of D-[U^14C]-Glucose along with 10 μM of the compound in a final DMSO concentration of 0.1%. The final glucose concentration is brought to 10 mM by the addition of D-Glucose (MEM already contains 5 mM glucose). The cells are incubated for 3 hours at 37° C. The cells are washed twice with 150 mM NaCl, lysed with 0.1 N NaOH, and the lysate precipitated with 8% w/v trichloroacetic acid (TCA) and 1 mg/well unlabeled glycogen as carrier. Cell debris is pelleted by centrifugation, the supernatant is removed, and the glycogen is precipitated with 63% ethanol. After another round of centrifugation, the supernatant is removed, and the pellet containing the precipitated glycogen is dried overnight. De novo synthesized glycogen is estimated in a scintillation counter (MicroBeta Trilux, Perkin Elmer), and expressed as fold increase over DMSO control.
The protocol for the glycogen assay is based on the method described in “Biochem J. 1990 Feb. 15; 266(1): 91-102” with a few minor modifications. The protocol for isolation of primary rat hepatocytes is based on the method described in “Methods in Enzymology, Vol. III. pp 34-50. Ed. by S. P. Colowick and N. O. Kaplan. New York, Academic Press, 1957” with a few minor modifications.
Compounds described in formula (I), in concentration ranges from 1.0 nM to 500 μM, are tested in glycogen synthesis assay described above.

[2] = target: T1, purified human recombinant GK (Homo sapiens, UniProt P35557); experiment: Glucokinase activity assay (coupled enzymatic GK/G6PD assay, NADH absorbance at 340 nm); type: biochemical; settings: for EC50: EC50 of % change in S0.5 of glucokinase for glucose, sigmoidal fit, read-out: EC50 (with respect to % ΔS0.5); for Emax / % Emax (with respect to % ΔS0.5): Emax of % change in S0.5, vehicle S0.5 = 0%, 0 mM glucose = 100%; for Emax: read-out: % Emax (with respect to % ΔS0.5)
T1 sequence (P35557 1-465): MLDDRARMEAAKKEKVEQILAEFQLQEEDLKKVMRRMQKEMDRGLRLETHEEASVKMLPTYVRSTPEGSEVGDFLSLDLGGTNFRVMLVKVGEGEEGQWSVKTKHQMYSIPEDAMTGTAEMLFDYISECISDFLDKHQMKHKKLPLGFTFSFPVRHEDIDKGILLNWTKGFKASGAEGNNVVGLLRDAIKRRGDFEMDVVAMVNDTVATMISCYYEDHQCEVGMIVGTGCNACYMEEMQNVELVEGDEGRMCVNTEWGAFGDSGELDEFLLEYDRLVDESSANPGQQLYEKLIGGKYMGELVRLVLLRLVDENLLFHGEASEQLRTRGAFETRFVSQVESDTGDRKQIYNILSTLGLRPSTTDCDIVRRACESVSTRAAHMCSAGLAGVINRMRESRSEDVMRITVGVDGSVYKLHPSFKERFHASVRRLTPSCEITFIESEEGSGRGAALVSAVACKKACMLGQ
Excerpt: The glucokinase (GK) assay is a coupled enzymatic assay. GK catalyzes the first step of glycolysis, the conversion of glucose to glucose-6-phosphate (G6P) in the presence of ATP. G6P in turn is converted by glucose-6-phosphate dehydrogenase (G6PD) to 6-phosphogluconate, a process that requires NAD, resulting in NADH formation. Since the GK-catalyzed step is the rate-limiting step of this coupled enzymatic process, the rate of accumulation of 6-phosphogluconate and NADH is directly proportional to the rate of glucose phosphorylation by GK. The rate of the GK-catalyzed reaction can therefore be measured by monitoring the increase in NADH absorbance at 340 nm.
The assay is carried out according to the protocol outlined in Hariharan et al (1997), Diabetes 46: 11-16. Briefly, the test compounds are incubated in a reaction mix containing 25 mM HEPES (pH 7.2), 10 mM MgCl2, 100 mM KCl, 5 mM ATP, 2 mM DTT, 0.5 mM NAD, 1 U/ml Leuconostoc mesenteroides G6PD, 0.3 U/ml of purified human recombinant GK, and different concentrations of glucose. Enzymatic activity is calculated from the initial reaction velocity, measured from the change in NADH absorbance as a function of time.
Compounds described in formula (I), in concentration ranges from 1.0 nM to […] are tested in the purified human recombinant glucokinase assay described above.
A compound is considered to be a glucokinase activator if it, in its testable range of concentrations, yields a higher rate of glucose phosphorylation than in its absence at a particular glucose concentration, for example at 5 mM glucose.
Compounds of general formula (I) are tested in the in vitro GK enzymatic assay to monitor dose-dependent effect on glucokinase activation (in kinetic mode), as described above, at various glucose concentrations. The S0.5 of glucokinase for glucose at different concentration of each compound of interest is calculated from the following modified version of the Michaelis-Menten equation, V=Vmax[S]^n/(S0.5^n+[S]^n), where [S] is the glucose concentration and n is the Hill coefficient (taken as 1.7 to account for the sigmoidal kinetics of glucokinase with respect to glucose). The S0.5 is plotted against the log of the compound concentration. The change in the S0.5 of glucokinase (ΔS0.5) for glucose is calculated by subtracting the S0.5 at each concentration of the compound from the S0.5 in the vehicle control. The ΔS0.5 is then normalized to a percent scale, where the S0.5 in the vehicle control is set to 0% and 0 mM glucose is set to 100%. The % ΔS0.5 is then plotted against the log of the compound concentration. The EC50 and Emax of % change in S0.5 is obtained from the sigmoidal fit of the data. Detailed protocol has been described in our copending application no. WO 2008/104994 which is incorporated herein by reference. Characterization data of some representative glucokinase activators of the present disclosure, which are illustrative but not limiting, are given in table 1 below.

SMILES	EC50 [2]	Emax [2]	% Emax (with respect to % ΔS0.5) [2]	fold induction at 10 µM [1]	Fold increase in glycogen synthesis at 10 μM compound [1]
COc1cnc(NC(=O)C(Oc2ccc(F)cc2F)c2ccc(S(=O)(=O)C3CC3)cc2)s1 (stereo not drawn) [Example A75, 2-(4-Cyclopropanesulfonyl-phenyl)-2-(2,4-difluoro-phenoxy)-N-(5-methoxy-thiazol-2-yl)-acetamide]	76 nM	93%	–	7.1	–
CC(=O)Nc1cccc(OC(C(=O)Nc2nc(CC(=O)O)c(Cl)s2)c2ccc(S(=O)(=O)C3CC3)cc2)c1 (stereo not drawn) [Example B20, {2-[2-(3-Acetylaminophenoxy)-2-(4-cyclopropanesulfonylphenyl)acetylamino]-5-chloro-thiazol-4-yl}acetic acid]	6800 nM	90%	–	6.8	–
O=C(Nc1nccs1)C(Oc1ccc(F)cc1F)c1ccc(S(=O)(=O)C2CCCC2)cc1 (stereo not drawn) [Example A10, 2-(4-Cyclopentanesulfonylphenyl)-2-(2,4-difluorophenoxy)-N-thiazol-2-yl-acetamide]	110 nM	95%	–	4.3	–
O=C(O)Cc1csc(NC(=O)C(Oc2ccc(F)cc2F)c2ccc(S(=O)(=O)C3CCCCC3)cc2)n1 (stereo not drawn) [Example B16, {2-[2-(4-Cyclohexanesulfonylphenyl)-2-(2,4-difluorophenoxy)acetylamino]-thiazol-4-yl}acetic acid]	1000 nM	90%	–	5.5	–
O=C(O)Cc1nc(NC(=O)C(Oc2ccc(Cl)cc2)c2ccc(S(=O)(=O)C3CC3)cc2)sc1Cl (stereo not drawn) [Example B6, {5-Chloro-2-[2-(4-chlorophenoxy)-2-(4-cyclopropanesulfonylphenyl)-acetylamino]-thiazol-4-yl}acetic acid]	830 nM	90%	–	8.6	–
O=C(Nc1ncc(F)s1)C(Oc1ccc(F)cc1F)c1ccc(S(=O)(=O)C2CC2)cc1 (stereo not drawn) [Example A3, 2-(4-Cyclopropanesulfonylphenyl)-2-(2,4-difluorophenoxy)-N-(5-fluorothiazol-2-yl)-acetamide]	200 nM	95%	–	2.9	–
O=C(O)Cc1nc(NC(=O)C(Oc2ccc3[nH]ccc3c2)c2ccc(S(=O)(=O)C3CC3)cc2)sc1Cl (stereo not drawn) [Example B19, {5-Chloro-2-[2-(4-cyclopropanesulfonylphenyl)-2-(1H-indol-5-yloxy)acetylamino]thiazol-4-yl}acetic acid]	3300 nM	95%	–	3.3	–

Now from value to molecule, other results behind:

EC50 [2]	Emax [2]	% Emax (with respect to % ΔS0.5) [2]	SMILES	fold induction at 10 µM [1]	Fold increase in glycogen synthesis at 10 μM compound [1]
1270 nM	–	90%	O=C(O)Cc1nc(NC(=O)C(Oc2ccc(F)cc2F)c2ccc(S(=O)(=O)C3CC3)cc2)sc1Cl (single isomer, unassigned; (+)) [Example F1, (+)-{5-Chloro-2-[2-(4-cyclopropanesulfonyl-phenyl)-2-(2,4-difluorophenoxy)acetyl-amino]thiazol-4-yl}-acetic acid]	–	4.5 fold
2370 nM	90%	–	O=C(O)Cc1csc(NC(=O)C(Oc2ccc(F)cc2F)c2ccc(S(=O)(=O)C3CC3)cc2)n1 (single isomer, unassigned; (-)) [Example E3, (−){2-[2-(4-Cyclopropanesulfonylphenyl)-2-(2,4-difluorophenoxy)acetylamino]-thiazol-4-yl}acetic acid]	9.5	–
170 nM	91%	–	O=C(O)c1cccc(Oc2cnc(NC(=O)C(OC3CCOCC3)c3ccc(S(=O)(=O)C4CC4)cc3)s2)c1 (stereo not drawn) [Example B92, 3-{2-[2-(4-Cyclopropanesulfonyl-phenyl)-2-(tetrahydro-pyran-4-yloxy)-acetylamino]-thiazol-5-yloxy}-benzoic acid]	7.8	–
2470 nM	–	90%	O=C(O)Cc1csc(NC(=O)C(Oc2ccc(F)cc2F)c2ccc(S(=O)(=O)C3CC3)cc2)n1 (single isomer, unassigned; (+)) [Example F3, (+)-{2-[2-(4-Cyclopropanesulfonylphenyl)-2-(2,4-difluorophenoxy)acetylamino]thiazol-4-yl}acetic acid]	–	7.0 fold
670 nM	–	95%	O=C(O)Cc1nc(NC(=O)C(Oc2ccc(F)cc2F)c2ccc(S(=O)(=O)C3CCCC3)cc2)sc1Cl (single isomer, unassigned; (+)) [Example F2, (+)-{5-Chloro-2-[2-(4-cyclopentanesulfonyl-phenyl)-2-(2,4-difluorophenoxy)acety-lamino]thiazol-4-yl}acetic acid]	–	7.2 fold
110 nM	90%	–	O=C(Nc1ncc(Oc2ccc(C(=O)N3CCC3)cc2)s1)C(OC1CCOCC1)c1ccc(S(=O)(=O)C2CC2)cc1 (stereo not drawn) [Example G6]	6.2	–
150 nM	94%	–	O=C(Nc1nc2cccnc2s1)C(OC1CCOCC1)c1ccc(S(=O)(=O)C2CC2)cc1 (single isomer, unassigned; (-)) [Example H10A, (−)2-(4-Cyclopropanesulfonyl-phenyl)-2-(tetrahydro-pyran-4-yloxy)-N-thiazolo[5,4-b]pyridin-2-yl-acetamide]	4.1	–
1550 nM	95%	–	O=C(O)Cc1nc(NC(=O)C(Oc2ccc(F)cc2F)c2ccc(S(=O)(=O)C3CC3)cc2)sc1Cl (single isomer, unassigned; (-)) [Example E1, (−)-{5-Chloro-2-[2-(4-cyclopropanesulfonyl-phenyl)-2-(2,4-difluorophenoxy)acetyl-amino]thiazol-4-yl}acetic acid]	8.1	–
